Source: patent publication EP0663912B1, “HETEROCYCLIC ETHER COMPOUNDS THAT ENHANCE COGNITIVE FUNCTION” (ABBOTT LABORATORIES, priority 1992, dated 1994)
Values joined by “and” are separate entries in the source; they are usually repeats but may differ in a detail not shown here. Identical values can stand only once. Counter-ions that a name gives are not always drawn.

Experiments:
CD1 mice = test: Mouse elevated plus-maze (EPM) test of anxiolytic activity; assay type: in vivo
Description: The mouse elevated plus-maze is a conflict test that probes anxiolytic activity of test compounds (Lister, Psychopharmacology, 1987, 92:180). It is based on the fact that exposure of mice to an elevated open arm leads to an avoidance response considerably stronger than that evoked by exposure to an enclosed arm.
The apparatus required to perform this test is made of plywood and consists of two open arms (17 X 8 cm) and two enclosed arms (17 X 8 X 15 cm) extending from a central platform (8 X 8 cm). It is mounted on a plywood base rising 39 cm above the floor. Mice are released on the central platform and the time spent in the open and enclosed arms is recorded during a 5 minute test period. The test compounds were administered to CD1 mice 15 minutes before the test. […]

[1] = Inhibitory (passive) avoidance (IA) test of learning/memory; assay type: in vivo
Description: The inhibitory (or sometimes called passive) avoidance (IA) test is a well accepted animal model of learning/memory used to assess the activity of novel cholinergic agonists to enhance cognitive function (Wanibuchi et al., Eur. J. Pharmacol., 1990, 187:479). Animals are placed in the illuminated (12 X 14 X 11 cm) portion of a two-chambered box, from which they enter through a guillotine door to the larger (24 X 13.5 X 12 cm) dark compartment of the box. Entry to the dark compartment is accompanied by a mild (0.5 mA), brief (2 seconds) footshock. Initial latencies to cross are recorded, with an imposed 60 second ceiling. Following a 72 hour retention interval, animals are returned to the illuminated chamber, and latency to return to the dark compartment is again recorded, with a ceiling of 180 seconds. No footshock is administered on the test day.
Twelve animals were used in each group.

[2] = system: cholinergic channel receptors in PC12 cells; test: Whole-cell patch-clamp measurement of cholinergic channel activation in NGF-differentiated PC12 cells; assay type: cell-based, rat; conditions: for CURRENT AT PEAK: holding potential -60 mV
Description: B. Protocols for the Determination of Cholinergic Channel Activation in PC12 Cells.
The cholinergic channel activator properties of Example 9 were investigated in PC12 cells using the whole-cell patch-clamp approach to measure current flow through ligand-gated membrane channels. […]
PC12 cells are a rat pheochromocytoma cell line that, upon treatment with nerve growth factor (NGF) differentiate into a neuronal phenotype and express nicotinic cholinergic channels (Greene & Tischier, Proceedings of the National Academy of Sciences of the United States of America, 73: 2424-2428, 1976; Dichter et al., Nature, 268: 501-504, 1977). Prominent neuronal cholinergic channel subunits in these cells are α3, α5, β2, β3 and β4 (Rogers et al., Journal of Neuroscience, 12: 4611-4623, 1992).
PC12 cells were obtained initially from ATCC and, using standard techniques were maintained in DMEM containing 10% heat-inactivated fetal calf serum and 5% heat-inactivated horse serum (37°C, 95% 02 & 5% CO2). Electrophysiologic recordings were obtained from differentiated (neurite-bearing) cells after 4-7 days exposure to NGF. For this purpose, the undifferentiated cells were first plated onto polylysine-coated 12 mm round glass coverslips in 60x15 mm plastic Petri dishes. After 20 minutes, differentiating medium was added (DMEM containing 100 ng/ml nerve growth factor, 5% heat-inactivated fetal calf serum and 2.5% heat-inactivated horse serum) and the cells were refed with this medium every 3 days.
The whole-cell patch-clamp technique was used to record voltage-activated currents and ligand-gated currents activated by substances applied through the U-tube flow-reversal technique (Fenwick et al., The Journal of Physiology (London) 331: 577-597, 1982). A coverslip bearing the cells was transferred from culture dish to the recording chamber (350 µL volume) and superfused (1 ml/min) at room temperature with an extracellular solution containing 150 mM NaCl, 2.8 mM KCI, 2.0 mM CaCl2, 1.0 mM MgCl2, ≥ 10 mM dextrose and 10 mM Na-HEPES buffer (7.3 pH, 325 mOsm). The intracellular (recording pipette) solution consisted of 140 mM KCl, 1.0 mM CaCl2, 2.0 mM MgCl2, 11 mM K-EGTA, and 10 mM K-HEPES buffer (7.3 pH, 315 mOsm). Osmolarities were adjusted using dextrose such that the extracellular solution was 10 mOsm hypertonic compared to the intracellular solution. Voltage-gated inward (sodium) and outward (potassium) currents were monitored throughout the experiment to determine establishment and maintenance of the whole-cell recording configuration.
The ligand was applied at least twice at each concentration in every cell, and applications were separated by ≥ 3 minutes to allow for recovery from desensitization, washout of the bathing solution, and re-equilibration of the U-tube. Antagonists were applied to the bathing solution through superfusion for 5-10 minutes prior to application of both antagonist and agonist through the U-tube flow reversal.

[3] = level of increase in time spent in the open arms, dose or dose range in brackets, given 15 minutes before 5 minute test
[4] = level of improvement in retention of the avoidance response, dose or dose range in brackets, IP 15 minutes before training, 12 animals per group

Structure (SMILES)	EPM (CD1 mice; [3])	IA [1, 4]	also measured
CN1CCCC1c1cccnc1 (single isomer, unassigned; (-)) [(-)-nicotine, reference compound]			EPM (CD1 mice; mouse, in vivo): significant [0.62-1.9]; time spent by the mice in the open arms of the maze (CD1 mice; mouse, in vivo): significant increase; IA ([1]; in vivo, ip): significant [0.19-0.62]; CURRENT AT PEAK ([2]; 50 µM (-)-nicotine, individual PC12 cells A-E): 81 pA and 108 pA and 163 pA and 539 pA; CURRENT AT PEAK, MEAN±S.E.M. ([2]; 50 µM (-)-nicotine, n=5 PC12 cells): 235 ± 84 pA; EC50 ([2]; PC12 cells current response): 52 µM
CN1CCC[C@H]1COc1cnccn1.O=C(O)/C=C/C(=O)O [Example 3, 2-(1-Methyl-2-(S)-pyrrolidinylmethyloxy)pyrazine fumarate]	NE [0.019-0.62]	NE [0.062-1.9]	
CN1CCC[C@H]1COc1cccnc1.O=C(O)/C=C/C(=O)O [Example 4, 3-(1-Methyl-2-(S)-pyrrolidinylmethyloxy)pyridine fumarate]	NE [0.019-0.62]	significant [0.019]	
Cl.c1cnc(OC[C@@H]2CCN2)cn1 [Example 7, 2-(2-(S)-azetidinylmethyloxy)pyrazine hydrochloride]	NE [0.019-0.62]	marginal	
CN1CC[C@H]1COc1cnccn1.Cl [Example 8, 2-(1-Methyl-2-(S)-azetidinylmethyloxy)pyrazine hydrochloride]	NE [0.062- 1.9]	NE [0.062- 1.9]	
Cl.c1cncc(OC[C@@H]2CCN2)c1 [Example 9, 3-(2-(S)-azetidinylmethyloxy)pyridine hydrochloride]	significant [0.0062]	NE [0.0019- 0.062]	CURRENT AT PEAK ([2]; 10 µM Example 9, individual PC12 cells A-E, hydrochloride): 165 pA and 173 pA and 484 pA and 283 pA and 702 pA; CURRENT AT PEAK, MEAN±S.E.M. ([2]; 10 µM Example 9, n=5 PC12 cells): 361 ±103 pA; RESPONSE RATIO Example 9 /(-)-NICOTINE ([2]; 10 µM Example 9 versus 50 µM (-)-nicotine in the same cell, individual PC12 cells A-E, hydrochloride, 10 µM): 203% and 161% and 171% and 173% and 130%; RESPONSE RATIO Example 9 /(-)-NICOTINE, MEAN±S.E.M. ([2]; 10 µM Example 9 versus 50 µM (-)-nicotine in the same cell, n=5): 168 ± 12%
CN1CC[C@H]1COc1cccnc1.Cl [Example 10, 3-(1-Methyl-2-(S)-azetidinylmethyloxy)pyridine hydrochloride]	significant [0.19]	marginal [0.62]	
c1cncc(OC[C@@H]2CCCN2)c1 [Example 14, 3-(2-(S)-pyrrolidinylmethyloxy)pyridine furmarate]	marginal [0.019]	NE [0.019- 0.62]	
Cl.Cl.Clc1cncc(OC[C@@H]2CCCN2)c1 [Example 15, 5-Chloro-3-(2-(S)-pyrrolidinylmethyloxy)pyridine dihydrochloride]	significant [0.062- 0.19]	significantly inhibits [0.062]	
CN1CCC[C@H]1COc1cncc(Cl)c1.Cl.Cl [Example 16, 5-Chloro-3-(1-methyl-2-(S)-pyrrolidinylmethyloxy)pyridine dihydrochloride]	NE [0.019- 0.62]	significant [0.019]	
Cc1ncccc1OC[C@@H]1CCCN1.Cl.Cl [Example 17, 2-Methyl-3-(2-(S)-pyrrolidinylmethyloxy)pyridine dihydrochloride]	significant [1.9]	significant [0.062, 0.62, 1.9]	
Cc1ccc(OC[C@@H]2CCCN2)cn1.Cl.Cl [Example 18, 6-Methyl-3-(2-(S)-pyrrolidinylmethyloxy)pyridine dihydrochloride]	significant [0.062- 0.19]	NE [0.019- 0.62]	
Cc1ccc(OC[C@@H]2CCCN2C)cn1.Cl.Cl [Example 19, 6-Methyl-3-(1-methyl-2-(S)-pyrrolidinylmethyloxy)pyridine dihydrochloride]	NE [0.019-62]	NE [0.019- 0.62]	
CC1CC[C@@H](COc2cccnc2)N1C.Cl.Cl (stereo partly drawn) [Example 22, 3-(1-Methyl-5-methyl-2-(S)-pyrrolidinylmethyloxy)pyridine dihydrochloride]	NE [0.062-1.9]	NE [0.062- 1.9]	
Cc1ncccc1OC[C@@H]1CCN1.Cl.Cl [Example 29, 2-Methyl-3-(2-(S)-azetidinylmethyloxy)pyridine dihydrochloride]	significant [0.62, 1.9]	significantly Inhibits [19]	
c1csc(OCC23CCCN2CCC3)n1 [Example 34, 2-(1-(8-pyrrolizidinyl)methyloxy)thiazole hydrochloride salt]	marginal [0.62]	NE [0.062-1.9]	
CNC1(C)C2CCC(C2)C1(C)C (centres unmarked) [Mecamylamine, reference compound]			inhibition of the responses to Example 9 ([2]; Mecamylamine 10 µM against Example 9 10 µM, n=4): ≥ 80%
